Structures can show the parent of a compound that is named as a salt.
Legend:
gut transit time = details: in vivo; cited from earlier work
[1] = test system: functional gastrointestinal disorder (diarrhoea with abdominal pain); assay: Treatment of patients with abdominal pain and diarrhoea with normal release tramadol (case reports); type: in vivo, human; details: 50 mg normal release twice daily
[2] = test system: patients started on tramadol pain therapy; details: initially when started on tramadol pain therapy; cited from earlier work
[3] = Example 2: person with abdominal pain and diarrhoea

For `CN(C)CCCN1c2ccccc2CCc2ccccc21` [imipramine], the “effect on gut transit time” value (gut transit time) is listed as “increase gut transit time”.
With `COc1cccc(C2(O)CCCCC2CN(C)C)c1` (stereo not shown) [tramadol hydrochloride] the “bowel movements after treatment” value ([1]; Example 1: person, long term chronic refractory diarrhoea) was “normal bowel movements” and the “abdominal pain after treatment” value ([1]; Example 1: person, severe persistent abdominal pain) was “absence of pain”.
For `COc1cccc(C2(O)CCCCC2CN(C)C)c1` (stereo not shown) [tramadol, 2-[(Dimethylamino)methyl]-1-(3-methoxyphenyl)cyclohexanol], the “proportion of patients suffering nausea and vomiting” value [2] is listed as “one third and a half”, the “abdominal pain after treatment” value [1, 3] is listed as “relief of pain” and the “bowel movements after treatment” value [1, 3] is listed as “normal bowel movements”. The side effect ([1]; Example 2: person) was “some drowsiness”.

Source: US8716347B2, “Tramadol for the treatment of functional gastrointestinal disorders” (Euro-Celtique S.A., priority 2000, dated 2014)
